Target: T1, HIV protease (Human immunodeficiency virus type 1 group M subtype B, UniProt P04585)
T1 construct: the protease expressed in Escherichia coli; made in house; host or cells: Escherichia coli
Assay: Assay for Inhibition of Microbial Expressed HIV Protease
Format: biochemical
Settings: protease expressed in Escherichia coli; peptide substrate Val-Ser-Gln-Asn-(betanaphthyl)Ala-Pro-Ile-Val; 50 mM Na acetate, pH 5.5, 30° C., 1 hour; HPLC readout
Method: Assay for Inhibition of Microbial Expressed HIV Protease
Inhibition studies of the reaction of the protease expressed in Escherichia coli with a peptide substrate [Val-Ser-Gln-Asn-(betanaphthyl)Ala-Pro-Ile-Val, 0.5 mg/mL at the time the reaction is initiated] were in 50 mM Na acetate, pH 5.5, at 30° C. for 1 hour. Various concentrations of inhibitor in 1.0 ul DMSO were added to 25 ul of the peptide solution in water. The reaction is initiated by the addition of 15 ul of 0.33 nM protease […] in a solution of 0.133 M Na acetate pH 5.5 and 0.26% bovine serum albumin. The reaction was quenched with 160 ul of 5% phosphoric acid. Products of the reaction were separated by HPLC (VYDAC wide pore 5 cm C-18 reverse phase, acetonitrile gradient, 0.1% phosphoric acid). The extent of inhibition of the reaction was determined from the peak heights of the products.

IC50: 8 to 9 nM
SMILES: CC(C)CN(CC(O)CC(Cc1ccccc1)C(=O)NC1c2ccccc2CC1O)C(=O)OCc1ccccc1 [Compound A, N-(2'(R)-hydroxy-1'(S)-indanyl)-2(R)-phenylmethyl-4(S)-hydroxy-5-[((2'''-methyl)propyl)-benzyloxycarbonyl]-amino-pentaneamide]
